# Source: patent US20240067693A1, “POLYPEPTIDES AND USES THEREOF” (MEDIMMUNE LIMITED, priority 2020, published 2024)
# Numbered stars: 1 amine (or outer) side, 2 acyl side, 3 side chain; on linkers, the order of the positions; unused ones are H or OH. Bridge positions count the residues as written; N and C are the ends. Square brackets hold non-standard residues; d marks the D form. Side chains are listed from the residue outwards. Peptide text beside a SMILES is read from it. * marks the point of attachment. C18 diacid = O=C(O)CCCCCCCCCCCCCCCCC(=O)*; γGlu = O=C(O)[C@H](CCC(=O)[*:2])N[*:1]; αMeF = C[C@](N)(Cc1ccccc1)C(=O)O
# Assays:
# [1] = biological target: T1, human calcitonin receptor (hCTR) (Homo sapiens, UniProt P30988); test: cAMP production in 1321N1 cells with stable recombinant expression of human calcitonin receptor (hCTR); type: cell-based; conditions: cAMP, 1321N1 cells, assay buffer with 0.1% BSA; read-out: EC50 (pM) hCTR
# T1 construct: expressed in transfected cells
# T1 sequence (P30988 25-474): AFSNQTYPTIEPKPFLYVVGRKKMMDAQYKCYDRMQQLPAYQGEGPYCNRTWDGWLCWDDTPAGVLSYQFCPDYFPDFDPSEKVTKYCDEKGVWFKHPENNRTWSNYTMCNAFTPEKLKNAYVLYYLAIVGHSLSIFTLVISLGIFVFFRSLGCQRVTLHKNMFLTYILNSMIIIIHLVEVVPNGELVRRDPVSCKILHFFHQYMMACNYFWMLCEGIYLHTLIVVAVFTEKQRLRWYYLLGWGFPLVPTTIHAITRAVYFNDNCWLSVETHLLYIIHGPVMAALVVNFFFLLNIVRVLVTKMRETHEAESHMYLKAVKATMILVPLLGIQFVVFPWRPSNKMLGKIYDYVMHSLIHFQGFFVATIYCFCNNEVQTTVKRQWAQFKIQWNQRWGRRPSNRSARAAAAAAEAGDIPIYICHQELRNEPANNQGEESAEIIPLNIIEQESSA
# Procedure, shortened: (§1)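 Thawed cells in HBSS/0.1% BSA/25 mM HEPES pH 7.4 with 0.5 mM IBMX were incubated with peptides 30 min at room temperature; cAMP read by HTRF. EC50 from 4-parameter fit of % activation relative to maximal amylin or calcitonin effect.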
# [2] = Thioflavin T fibrillation assay; type: physicochemical; conditions: ThT fibrillation assay; peptide 1 mg/mL in 25 mM sodium acetate buffer pH 4.0; 6 days at 37 °C with shaking; >144 h = no increase
# Procedure, shortened: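 Peptides at 1 mg/mL in 25 mM sodium acetate pH 4.0 with ThT (from 0.25 mM stock), incubated 6 days at 37 °C with intermittent orbital shaking at 500–750 rpm. Fluorescence (ex 444/em 480 nm) read every 30 min; value is average time to a rise in baseline-corrected signal.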
# [3] = biological target: T2, human amylin receptor (calcitonin receptor co-expressed with receptor activity modifying protein, RAMP3) (hAMYR3) (Homo sapiens, UniProt O60896+P30988); test: cAMP production in 1321N1 cells with stable recombinant expression of human amylin receptor (hAMYR3); type: cell-based; conditions: for Ratio (selectivity hAMYR vs hCTR, ratio of EC50 values at the two receptors): EC50 hCTR / EC50 hAMYR3; for EC50: cAMP, 1321N1 cells, assay buffer with 0.1% BSA, read-out: EC50 (pM) hAMYR3
# T2 construct: expressed in transfected cells
# T2 sequence (P30988 25-474): T1 sequence (P30988 25-474)
# T2 sequence (O60896 24-148 partner): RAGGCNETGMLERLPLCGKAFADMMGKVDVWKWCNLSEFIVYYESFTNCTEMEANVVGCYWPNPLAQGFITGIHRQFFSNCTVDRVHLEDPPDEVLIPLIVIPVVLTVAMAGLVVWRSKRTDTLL
# Procedure, shortened: as §1
# lean rats = test: Rat acute food intake study; type: in vivo; conditions: lean male Sprague Dawley rats, 20 nmol/kg subcutaneously
# Procedure, shortened: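 Male Sprague Dawley rats (n=7/group), fasted 6 h, received 20 nmol/kg test compound or 60 nmol/kg pramlintide subcutaneously 30 min before food return at dark onset. Food intake recorded automatically in home cages over 3 days, binned hourly and analysed as cumulative dark-period intake; body weight taken daily.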
EC50 [1] [pM],Time taken to detect increase in fluorescence intensity [2] [h],"Ratio (selectivity hAMYR vs hCTR, ratio of EC50 values at the two receptors) [3]",EC50 [3] [pM],SMILES,Cummulative food intake (% vehicle treated intake) At 12 h (lean rats) [% vehicle treated intake],Cummulative food intake (% vehicle treated intake) At 24 h (lean rats) [% vehicle treated intake],Cummulative food intake (% vehicle treated intake) At 48 h (lean rats) [% vehicle treated intake]
1220,>144,8,158,"CC[C@H](C)[C@H](NC(=O)[C@@H]1CCCN1C(=O)CNC(=O)[C@](C)(Cc1ccccc1)NC(=O)[C@H](CC(N)=O)NC(=O)[C@H](CC(N)=O)NC(=O)[C@H](CO)NC(=O)[C@H](CO)NC(=O)[C@H](Cc1c[nH]cn1)NC(=O)[C@H](CCCNC(=N)N)NC(=O)[C@H](CC(C)C)NC(=O)[C@H](Cc1ccccc1)NC(=O)[C@H](CCC(=O)O)NC(=O)[C@H](C)NC(=O)[C@H](CC(C)C)NC(=O)[C@H](CCCNC(=N)N)NC(=O)[C@H](CCC(N)=O)NC(=O)[C@@H](NC(=O)[C@H](C)NC(=O)[C@@H]1CSSC[C@H](NC(=O)[C@H](CCCCN)NC(=O)[C@@H](N)CCCCNC(=O)CC[C@H](NC(=O)CCCCCCCCCCCCCCCCC(=O)O)C(=O)O)C(=O)N[C@@H](CC(N)=O)C(=O)N[C@@H]([C@@H](C)O)C(=O)N[C@@H](C)C(=O)N[C@@H]([C@@H](C)O)C(=O)N1)[C@@H](C)O)C(=O)N[C@@H](CC(C)C)C(=O)N1CCC[C@H]1C(=O)N1CCC[C@H]1C(=O)N[C@H](C(=O)N[C@@H](CC(N)=O)C(=O)N[C@H](C(=O)NCC(=O)N[C@@H](CO)C(=O)N[C@@H](CC(N)=O)C(=O)N[C@H](C(=O)N[C@@H](Cc1ccc(O)cc1)C(N)=O)[C@@H](C)O)C(C)C)[C@@H](C)O [Peptide 12, K(γE-C18diacid)K[CNTATC]ATQRLAEFLRHSSNN(αMePhe)GPILPPTNVGSNTY-amide] (H-K([γGlu-C18 diacid])KCNTATCATQRLAEFLRHSSNN[αMeF]GPILPPTNVGSNTY-NH2; disulfide 3-8; N-terminus assumed)",9.4,7.5,23.6
5460,>144,10,522,"CC[C@H](C)[C@H](NC(=O)[C@@H]1CCCN1C(=O)CNC(=O)[C@](C)(Cc1ccccc1)NC(=O)[C@H](CC(N)=O)NC(=O)[C@H](CC(N)=O)NC(=O)[C@H](CO)NC(=O)[C@H](CO)NC(=O)[C@H](Cc1c[nH]cn1)NC(=O)[C@H](CCCNC(=N)N)NC(=O)[C@H](CC(C)C)NC(=O)[C@H](Cc1ccccc1)NC(=O)[C@H](CC(N)=O)NC(=O)[C@H](C)NC(=O)[C@H](CC(C)C)NC(=O)[C@H](CCCNC(=N)N)NC(=O)[C@H](CCC(N)=O)NC(=O)[C@@H](NC(=O)[C@H](C)NC(=O)[C@@H]1CSSC[C@H](NC(=O)[C@H](CCCCN)NC(=O)[C@@H](N)CCCCNC(=O)CC[C@H](NC(=O)CCCCCCCCCCCCCCCCC(=O)O)C(=O)O)C(=O)N[C@@H](CC(N)=O)C(=O)N[C@@H]([C@@H](C)O)C(=O)N[C@@H](C)C(=O)N[C@@H]([C@@H](C)O)C(=O)N1)[C@@H](C)O)C(=O)N[C@@H](CC(C)C)C(=O)N1CCC[C@H]1C(=O)N1CCC[C@H]1C(=O)N[C@H](C(=O)N[C@@H](CCC(=O)O)C(=O)N[C@H](C(=O)NCC(=O)N[C@@H](CO)C(=O)N[C@@H](CC(N)=O)C(=O)N[C@H](C(=O)N[C@@H](Cc1ccc(O)cc1)C(N)=O)[C@@H](C)O)C(C)C)[C@@H](C)O [Peptide 15, K(γE-C18diacid)K[CNTATC]ATQRLANFLRHSSNN(αMePhe)GPILPPTEVGSNTY-amide] (H-K([γGlu-C18 diacid])KCNTATCATQRLANFLRHSSNN[αMeF]GPILPPTEVGSNTY-NH2; disulfide 3-8; N-terminus assumed)",45.2,49.1,51
4690,>144,15,319,"CC[C@H](C)[C@H](NC(=O)[C@@H]1CCCN1C(=O)CNC(=O)[C@](C)(Cc1ccccc1)NC(=O)[C@H](CC(N)=O)NC(=O)[C@H](CC(N)=O)NC(=O)[C@H](CO)NC(=O)[C@H](CO)NC(=O)[C@H](Cc1c[nH]cn1)NC(=O)[C@H](CCCNC(=N)N)NC(=O)[C@H](CC(C)C)NC(=O)[C@H](Cc1ccccc1)NC(=O)[C@H](CC(N)=O)NC(=O)[C@H](C)NC(=O)[C@H](CC(C)C)NC(=O)[C@H](CCCNC(=N)N)NC(=O)[C@H](CCC(N)=O)NC(=O)[C@@H](NC(=O)[C@H](C)NC(=O)[C@@H]1CSSC[C@H](NC(=O)[C@@H](N)CCCCNC(=O)CC[C@H](NC(=O)CC[C@H](NC(=O)CCCCCCCCCCCCCCCCC(=O)O)C(=O)O)C(=O)O)C(=O)N[C@@H](CC(N)=O)C(=O)N[C@@H]([C@@H](C)O)C(=O)N[C@@H](C)C(=O)N[C@@H]([C@@H](C)O)C(=O)N1)[C@@H](C)O)C(=O)N[C@@H](CC(C)C)C(=O)N1CCC[C@H]1C(=O)N1CCC[C@H]1C(=O)N[C@H](C(=O)N[C@@H](CCC(=O)O)C(=O)N[C@H](C(=O)NCC(=O)N[C@@H](CO)C(=O)N[C@@H](CC(N)=O)C(=O)N[C@H](C(=O)N[C@@H](Cc1ccc(O)cc1)C(N)=O)[C@@H](C)O)C(C)C)[C@@H](C)O [Peptide 18, K(γE-γE-C18diacid)[CNTATC]ATQRLANFLRHSSNN(αMePhe)GPILPPTEVGSNTY-amide] (H-K([γGlu-γGlu-C18 diacid])CNTATCATQRLANFLRHSSNN[αMeF]GPILPPTEVGSNTY-NH2; disulfide 2-7; N-terminus assumed)",45.8,46.9,68.8
4590,>144,26,174,"CC[C@H](C)[C@H](NC(=O)[C@@H]1CCCN1C(=O)CNC(=O)[C@](C)(Cc1ccccc1)NC(=O)[C@H](CC(N)=O)NC(=O)[C@H](CC(N)=O)NC(=O)[C@H](CO)NC(=O)[C@H](CO)NC(=O)[C@H](Cc1c[nH]cn1)NC(=O)[C@H](CCCNC(=N)N)NC(=O)[C@H](CC(C)C)NC(=O)[C@H](Cc1ccccc1)NC(=O)[C@H](CC(N)=O)NC(=O)[C@H](C)NC(=O)[C@H](CC(C)C)NC(=O)[C@H](CCCNC(=N)N)NC(=O)[C@H](CCC(N)=O)NC(=O)[C@@H](NC(=O)[C@H](C)NC(=O)[C@@H]1CSSC[C@H](NC(=O)[C@@H](N)CCCCNC(=O)CC[C@H](NC(=O)CC[C@H](NC(=O)CCCCCCCCCCCCCCCCC(=O)O)C(=O)O)C(=O)O)C(=O)N[C@@H](CC(N)=O)C(=O)N[C@@H]([C@@H](C)O)C(=O)N[C@@H](C)C(=O)N[C@@H]([C@@H](C)O)C(=O)N1)[C@@H](C)O)C(=O)N[C@@H](CC(C)C)C(=O)N1CCC[C@H]1C(=O)N1CCC[C@H]1C(=O)N[C@H](C(=O)N[C@@H](CC(N)=O)C(=O)N[C@H](C(=O)NCC(=O)N[C@@H](CO)C(=O)N[C@@H](CC(N)=O)C(=O)N[C@H](C(=O)N[C@@H](Cc1ccc(O)cc1)C(N)=O)[C@@H](C)O)C(C)C)[C@@H](C)O [Peptide 20, K(γE-γE-C18diacid)[CNTATC]ATQRLANFLRHSSNN(αMePhe)GPILPPTNVGSNTY-amide] (H-K([γGlu-γGlu-C18 diacid])CNTATCATQRLANFLRHSSNN[αMeF]GPILPPTNVGSNTY-NH2; disulfide 2-7; N-terminus assumed)",27,26.2,49.7
